Data: patent US20100190957A1, “SPECIFIC THERAPY AND MEDICAMENT USING INTEGRIN LIGANDS FOR TREATING CANCER” (priority 2007, published 2010)
“And” between values parts separate entries of the source, which are not always exact repeats. Equal values may be shown once. “Also recorded” adds a separate entry of the source. Blank lines part the entries; values can stand above or below the compound they belong to.

Tests used:
[1] = system: recurrent glioblastoma (GBM); details: human, in vivo
Method: (§6) Methods: In this multicenter, open-label, randomized, uncontrolled study, pts with GBM and measurable disease that had relapsed after previous therapy with temozolomide and radiotherapy were randomized to receive cilengitide at doses of either 500 mg or 2000 mg i.v., 2×/week, until progression. Histopathology diagnosis and MRI imaging were subject to independent blinded review. The primary endpoint was Progression Free Survival (PFS) at 6 months (mths). Secondary endpoints included response, survival, time to disease progression, safety, tolerability and pharmacokinetics.

[2] = system: recurrent glioblastoma (GBM); test: Phase IIa trial of cilengitide single agent therapy in patients with recurrent glioblastoma
Method: as §6

various brain tumors = details: humans; cited from earlier work
[3] = system: newly diagnosed glioblastoma (GBM); test: Phase I/IIa trial of cilengitide and temozolomide with concomitant radiotherapy in newly diagnosed glioblastoma; type: in vivo, human
Method: Patients and methods: Fifty-two pts (PS 0-1: 92%, 2: 8%; median age 57 yrs) after biopsy (n=9/17%) or tumor resection (n=43/83%) were treated with standard TMZ/RT (Stupp et al. NEJM 2005). In addition Cilengitide (500 mg i.v., 2×/week) was started one week before TMZ/RT and given throughout for the duration of chemotherapy or until progression. Primary endpoint was progression free survival rate at 6 months (target: 65%). Patients were followed with MRI every 2 months. Histopathologic diagnosis and MRI imaging were independently reviewed, MGMT promotor methylation status was assessed in 45 (86.5%) pts.

[4] = system: U251 human glioblastoma cells; test: Rat orthotopic glioblastoma model, radiotherapy / cilengitide scheduling experiments (survival); type: in vivo, NIH rnu nude rats; parameters: key to Status at Date of Termination: Sick = moribund and removed from study; Healthy = indicates sampled for tissue at date shown, but alive at this point; Alive = surviving at time point shown; details: for Days Post Implant / Status at Date of Termination: per animal, listed as Rt + EMD; for Days Post Implant: at date of termination, plus 7 subsequent daily boluses, 4 mg/kg
Method: NIH rnu nude rats are anaesthetized, restrained, and injected intracerebrally 1 mm retro orbitally, 3mm to the right of the bregma and at a depth of 2.5 mm with 5×10E5 U251 human glioblastoma cells suspended in 10 ul of culture medium, using a #2701 Hamilton syringe fitted with a 26 gauge needle, essentially as previously described (Engebraaten et al., 1999). After 14 days, cilengitide (4 mg/kg) is given as an intraperitoneal bolus in PBS, at various time (8 h, 4 h, 2 h, 1 h) prior to a single treatment with single, collimated, dorsal-ventral beam of 6 MV x-rays, so that 95-100% of the central axis dose of 25 Gy hit the tumor volume (Kim et al., 1999). Each of the 7 subsequent days the animals also received an identical i.p. bolus of cilengitide. The animals are maintained under ad libitum food and drink until they become moribund, or are sampled for tissue analysis (in the t-4 and t-8 h groups, where the animals are healthy past 230 days post tumor injection). A Kaplan-Meier survival curve is calculated and plotted (FIG. 1) from the raw data (Table 1). All animals in the RT monotherapy group died by 120 d.

[5] = system: human umbilical vein endothelial cells (HUVECs); test: Serum growth stimulation (proliferation) assay, Alamar Blue, HUVEC; type: cell-based
Method: (§1) The effect of integrin alpha V blocker EMD 121974 (Cilengitide) on the viability of human carcinoma cells were tested, in combination with vinorelbine and paclitaxel, respectively, in a cell viability assay, dependent on reduction of Alamar blue dye. Each agent alone could inhibiting carcinoma viability, used together the compounds show an advantagous and preferably synergistic inhibitory effect.
(§2) The methods established and described in detail previously (Goodman and Hahn a; b) were used to measure the effect of combinations of integrin inhibitors and chemotherapeutics on carcinoma cell and human endothelial cell proliferation.
(§3) Points were run in duplicate or in triplicate. Reagent blanks, containing media plus Alamar Blue without cells, were run on each plate. Blank values were subtracted from test values and were routinely 5-10% of uninhibited control values.
In the growth assay Cilengitide was tested in the range of 50 μM to 0.1 nM.
(§4) Chemotherapeutic agents and αv-integrin blockers were serially diluted alone or together (combination therapy). In some assays the chemotherapeutic agent was serially diluted alone or in combination with of alpha-v integrin blocker. Growth inhibition curves were plotted and a shift of the combination therapy curve to lower concentrations in relation to the single agent curves was interpreted as an additional effect, produced by combination versus monotherapy.
(§5) The αv-integrin competitive inhibitor Cilengitide (EMD 121974) was tested alone and in combination with vinorelbine in a serum growth stimulation assay using human carcinoma cells or human umbilical vein endothelial cells (HUVECs). In these assays cells are cultured in serum, or in an endothelial growth stimulation medium (Goodman & Hahn).

renal carcinoma (A498) = test: Proliferation / cell viability assay, Alamar Blue, A498; type: cell-based, human; details: for EC50: Homo sapiens, A498, agent alone or + Cilengitide (2 μM constant)
Method: as §1, §2, §3, §4, §5
Cilengitide concentration is 2μM (constant).

NSCLC A549 = test: Proliferation / cell viability assay, Alamar Blue, A549; type: cell-based, human; details: for EC50: Homo sapiens, A549, agent alone or + Cilengitide
Method: as §1, §2, §3, §4, §5

SCCHN (Detroit562) = test: Proliferation assay, Detroit 562; type: cell-based, human; details: Cilengitide 2 μM (constant)
[6] = Homo sapiens, HUVEC, agent alone
[7] = Homo sapiens, HUVEC, in combination with 2 μM Cilengitide

Structure (SMILES): CC(C)[C@H]1C(=O)N[C@@H](CCCN=C(N)N)C(=O)NCC(=O)N[C@@H](CC(=O)O)C(=O)N[C@H](Cc2ccccc2)C(=O)N1C [Cilengitide, cyclo-(Arg-Gly-Asp-DPhe-NMeVal)]
CTC grade 2 cerebral hemorrhage [1]: One | 12 mth overall survival (OS) rate ([2]; 500 mg arm): 24.4% | median Overall Survival (mOS) ([2]; 500 mg arm, 95% CI 5.2-9.3 mths): 6.5 mths | PFS rate at 6 mths ([2]; 500 mg or 2000 mg i.v. 2x/week, both arms, n=13/81 pts): 16.1% | 12 mth OS rate ([2]; 2000 mg arm): 37.5% | median Overall Survival (mOS) ([2]; 2000 mg arm, 95% CI 6.3-15.7 mths): 9.9 mths | grade 4 therapy related AEs ([2]; 500 and 2000 mg): No grade 4 therapy related AEs were reported | Treatment related NCI CTC grade 3 adverse event: arthralgia/myalgia ([2]; at 500 mg): 1 patient | Treatment related NCI CTC grade 3 adverse event: elevated liver enzymes ([2]; at 500 mg): 1 patient | Treatment related NCI CTC grade 3 adverse event: weight increase/edema ([2]; at 2000 mg): 1 patient | pts still progression-free and on treatment at the time the abstract was issued ([2]; both arms, six of 81 pts): 7.4% | tolerability in single agent therapy ([2]; two dose levels (500 and 2000 mg)): tolerated well | MTD / side effect profile (various brain tumors): no known MTD in humans | haematological grade 3 and 4 toxicity: neutropenia ([3]; Cilengitide 500 mg + TMZ/RT, 5/52): 9.6% | haematological grade 3 and 4 toxicity: thrombocytopenia ([3]; Cilengitide 500 mg + TMZ/RT, 7/52): 13.4% | haematological grade 3 and 4 toxicity: lymphopenia ([3]; Cilengitide 500 mg + TMZ/RT, 28/52): 53.8% | Treatment related non-hematologic grade 3 toxicities, patients ([3]; Cilengitide 500 mg + TMZ/RT, n=3/52): 5.7% | tolerability of the combination with TMZ/RT ([3]; Cilengitide 500 mg i.v. 2x/week + TMZ/RT): well tolerated | patients progression free at 6 months (PFS-6) ([3]; Cilengitide 500 mg i.v. 2x/week added to standard TMZ/RT, 34/52, 95% CI 50.9-78.0%): 65.4% | sigmoid perforation (grade 2) ([3]; patient with a history of sigmoid diverticulosis): One | PFS-6 rate ([3]; subgroup with methylated MGMT promoter (23/52), Cilengitide 500 mg + TMZ/RT, historical control 69%): 91% | PFS-6 rate ([3]; subgroup with unmethylated MGMT promotor (22/52), Cilengitide 500 mg + TMZ/RT, historical control 40%): 40.9% | Days Post Implant ([4]; cilengitide bolus 4 mg/kg i.p. 1 hour pre-irradiation (Rt 25 Gy)): 112 days and 113 days and 130 days and 141 days | Days Post Implant ([4]; cilengitide bolus 4 mg/kg i.p. 2 hours pre-irradiation (Rt 25 Gy)): 120 days and 147 days and 162 days and 196 days | Days Post Implant ([4]; cilengitide bolus 4 mg/kg i.p. 4 hours pre-irradiation (Rt 25 Gy)): 238 Days (2×) and 254 Days (2×) | Days Post Implant ([4]; cilengitide bolus 4 mg/kg i.p. 8 hours pre-irradiation (Rt 25 Gy)): 287 Days (2×) and 257 Days (2×) | Status at Date of Termination ([4]; cilengitide 4 mg/kg 1 hour pre-irradiation (Rt 25 Gy)): (Sick) Sep. 1, 2005; also recorded: (Sick) Sep. 2, 2005; also recorded: (Sick) Sep. 19, 2005; also recorded: (Sick) Sep. 30, 2005 | Status at Date of Termination ([4]; cilengitide 4 mg/kg 2 hours pre-irradiation (Rt 25 Gy)): (Sick) Aug. 10, 2005; also recorded: (Sick) Sep. 6, 2005; also recorded: (Sick) Sep. 21, 2005; also recorded: (Sick) Oct. 25, 2005 | Status at Date of Termination ([4]; cilengitide 4 mg/kg 4 hours pre-irradiation (Rt 25 Gy)): (Healthy) Nov. 29, 2005; also recorded: (Alive) Dec. 15, 2005 | Status at Date of Termination ([4]; cilengitide 4 mg/kg 8 hours pre-irradiation (Rt 25 Gy)): (Alive) Dec. 15, 2005; also recorded: (Healthy) Nov. 15, 2005 | animals healthy past days post tumor injection ([4]; t-4 and t-8 h groups, cilengitide 4 mg/kg i.p. + 25 Gy): > 230 days | IC50 ([5]; agent alone): 700 nM

EC50 (renal carcinoma (A498)): 100 nM | EC50 (NSCLC A549): 8 nM
Structure (SMILES): CC(=O)O[C@H]1C(=O)[C@@]2(C)[C@H]([C@H](OC(=O)c3ccccc3)[C@]3(O)C[C@H](OC(=O)[C@H](O)[C@@H](NC(=O)c4ccccc4)c4ccccc4)C(C)=C1C3(C)C)[C@]1(OC(C)=O)CO[C@@H]1C[C@@H]2O [Paclitaxel]
IC50 [5, 6]: 10 nM | IC50 [5, 7]: 0.05 nM

EC50 (renal carcinoma (A498)): 60 nM | EC50 (NSCLC A549): 8 nM
Structure (SMILES): CCC1=C[C@@H]2CN(C1)Cc1c([nH]c3ccccc13)[C@@](C(=O)OC)(c1cc3c(cc1OC)N(C)[C@H]1[C@@](O)(C(=O)OC)[C@H](OC(C)=O)[C@]4(CC)C=CCN5CC[C@]31[C@@H]54)C2 [Vinorelbine]
effect of combination with Cilengitide on SCCHN (Detroit562) cell proliferation (SCCHN (Detroit562)): synergistically enhanced | effect of combination with Cilengitide on A498 cell proliferation (renal carcinoma (A498); Cilengitide constant at 2 μM): synergistically enhanced | IC50 [5, 6]: 20 nM | IC50 [5, 7]: 0.8 nM | effect of combination with Cilengitide on growth of A549 (NSCLC A549): synergistically enhanced
